Source: patent US20250230193A1, “CYCLIC COMPOUND HAVING SELECTIVE KRAS INHIBITORY EFFECT ON HRAS AND NRAS” (CHUGAI SEIYAKU KABUSHIKI KAISHA, priority 2022, published 2025)
Where a SMILES comes first, the peptide text is derived from it. Bridges are numbered along the chain shown (N, C = ends). [ ]: non-standard residue; d: D form. The star is where a group is joined. hPhe(3-Cl-4-CF3) = N[C@@H](CCc1ccc(C(F)(F)F)c(Cl)c1)C(=O)O; NEtPhe(4-Me) = CCN[C@@H](Cc1ccc(C)cc1)C(=O)O; NMeGly(cPent) = CN[C@H](C(=O)O)C1CCCC1; NMeD = CN[C@@H](CC(=O)O)C(=O)O; NMeL = CN[C@@H](CC(C)C)C(=O)O; Morpholide = C1CN(*)CCO1; NMeA = CN[C@@H](C)C(=O)O; Ac5c = NC1(C(=O)O)CCCC1; Aze = O=C(O)[C@@H]1CCN1; NEtG = CCNCC(=O)O

Columns and labels:
[1] = molecular target: GDP-bound NRAS wild-type protein (Homo sapiens, UniProt P01111); test: Binding to NRAS by surface plasmon resonance (SPR), Single Cycle Kinetics
GDP-bound NRAS wild-type protein, sequence (P01111 whole entry): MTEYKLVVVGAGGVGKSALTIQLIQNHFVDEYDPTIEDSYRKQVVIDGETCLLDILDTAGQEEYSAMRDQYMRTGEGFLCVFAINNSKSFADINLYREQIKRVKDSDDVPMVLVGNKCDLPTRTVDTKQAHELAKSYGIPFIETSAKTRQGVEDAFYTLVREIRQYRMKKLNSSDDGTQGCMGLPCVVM

[2] = molecular target: GDP-bound HRAS wild-type protein (Homo sapiens, UniProt P01112); test: Binding to HRAS by surface plasmon resonance (SPR), Single Cycle Kinetics
GDP-bound HRAS wild-type protein, sequence (P01112 whole entry): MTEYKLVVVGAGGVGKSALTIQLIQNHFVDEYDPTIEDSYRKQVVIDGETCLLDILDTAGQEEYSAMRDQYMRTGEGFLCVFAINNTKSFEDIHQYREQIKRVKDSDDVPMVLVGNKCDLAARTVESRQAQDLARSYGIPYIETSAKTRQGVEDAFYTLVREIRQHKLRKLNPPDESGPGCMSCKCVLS

[3] = KD ratio NRAS/KRAS, SPR, GDP-bound wild-type proteins
[4] = KD ratio HRAS/KRAS, SPR, GDP-bound wild-type proteins
[5] = GDP-bound NRAS wild-type vs GDP-bound KRAS wild-type, SPR
[6] = GDP-bound HRAS wild-type vs GDP-bound KRAS wild-type, SPR

CC[C@H](C)[C@@H]1NC(=O)[C@@H]2CCCCc3ccc(cc3)C[C@@H](C(=O)N(C)CC(=O)N[C@@H](CCc3ccc(C(F)(F)F)c(OC)c3)C(=O)N3C[C@H](OC(C)C)C[C@H]3C(=O)NC3(CC(C)(C)C3)C(=O)N(C)[C@@H](C3CCCC3)C(=O)N(C)[C@H](C(=O)N(C)CC)CC(=O)N2C)N2CC/C=C\C[C@@H](C2=O)N(C)C(=O)CN(C)C1=O [PP3078]
NRAS/KRAS (ratio of KD value with respect to GDP-bound NRAS wild-type protein to KD value with respect to KRAS) [1, 3]: A (a compound having 10 or more and less than 20 is denoted as A) | HRAS/KRAS (ratio of KD value with respect to GDP-bound HRAS wild-type protein to KD value with respect to KRAS) [2, 4]: B (a compound having 3 or more and less than 10 is denoted as B)

CCC[C@H]1C(=O)N[C@@H]([C@@H](C)CC)C(=O)N(C)CC(=O)N(C)[C@H]2C/C=C\CCN(C2=O)[C@@H](Cc2ccc(C(F)(F)F)cc2)C(=O)N(C)CC(=O)N[C@@H](CCc2cc(F)c(C(F)(F)F)c(F)c2)C(=O)N2C[C@H](OCC)C[C@H]2C(=O)NC2(CC(C)(C)C2)C(=O)N(C)[C@@H]([C@@H](C)CC)C(=O)N(C)[C@H](C(=O)N(C)C)CC(=O)N1C [PP1941]
NRAS/KRAS (ratio of KD value for NRAS to KD value for KRAS) [1, 5]: A (a compound having 10 or more and less than 20 is denoted as A) | HRAS/KRAS (ratio of KD value for HRAS to KD value for KRAS) [2, 6]: A (a compound having 10 or more and less than 20 is denoted as A)

CCO[C@@H]1C[C@H]2C(=O)NC3(CC(C)(C)C3)C(=O)N(C)[C@@H](C(CC)CC)C(=O)N(C)[C@H](C(=O)N3CCCCC3)CC(=O)N(C)[C@@H](COC)C(=O)N[C@@H]([C@@H](C)CC)C(=O)N(C)CC(=O)N(C)[C@H]3C/C=C\CCN(C3=O)[C@@H](Cc3ccc(C(F)(F)F)cc3)C(=O)N(C)CC(=O)N[C@@H](CCc3cc(F)c(C(F)(F)F)c(F)c3)C(=O)N2C1 [PP2606]
NRAS/KRAS (ratio of KD value with respect to GDP-bound NRAS wild-type protein to KD value with respect to KRAS) ([1]; KD ratio NRAS/KRAS, class symbols): AA (a compound having 20 or more is denoted as AA) | HRAS/KRAS (ratio of KD value with respect to GDP-bound HRAS wild-type protein to KD value with respect to KRAS) ([2]; KD ratio HRAS/KRAS, class symbols): AA (a compound having 20 or more is denoted as AA)

CCC[C@H]1C(=O)N[C@@H]([C@@H](C)CC)C(=O)N(C)CC(=O)N(C)[C@H]2C/C=C\CCN(C2=O)[C@@H](Cc2ccc(C(F)(F)F)cc2)C(=O)N(C)CC(=O)N[C@@H](CCc2ccc(C(F)(F)F)c(OC)c2)C(=O)N2C[C@H](OCC)C[C@H]2C(=O)N(C)C2(CCC2)C(=O)N(C)[C@@H](C2CCCC2)C(=O)N(C)[C@H](C(=O)N2CCCC2)CC(=O)N1C [PP3105, (2S,8S,12R,14S,20S,23S,27S,30S,36S,38Z)-20-cyclopentyl-12-ethoxy-8-[2-[3-methoxy-4-(trifluoromethyl)phenyl]ethyl]-4,16,19,22,26,32,35-heptamethyl-30-[(1S)-1-methylpropyl]-27-propyl-23-(pyrrolidine-1-carbonyl)-2-[[4-(trifluoromethyl)phenyl]methyl]spiro[1,4,7,10,16,19,22,26,29,32,35-undecazatricyclo[34.5.1.0^10,14]dotetracont-38-ene-17,1′-cyclobutane]-3,6,9,15,18,21,25,28,31,34,42-undecone]
NRAS/KRAS (ratio of KD value with respect to GDP-bound NRAS wild-type protein to KD value with respect to KRAS) [1, 3]: AA (a compound having 20 or more is denoted as AA) | HRAS/KRAS (ratio of KD value with respect to GDP-bound HRAS wild-type protein to KD value with respect to KRAS) [2, 4]: A (a compound having 10 or more and less than 20 is denoted as A)

CC[C@H](C)[C@@H]1NC(=O)[C@H](CC(C)C)N(C)C(=O)C[C@@H](C(=O)N2CCOCC2)N(C)C(=O)[C@H](C2CCCC2)N(C)C(=O)C2(CCCC2)NC(=O)[C@@H]2CCCN2C(=O)[C@H](CCc2ccc(C(F)(F)F)c(Cl)c2)NC(=O)CN(CC)C(=O)[C@H](Cc2ccc(C)cc2)N(CC)C(=O)[C@@H]2CCN2C(=O)[C@H](C)N(C)C1=O [PP0006] ([NMeL]I[NMeA][Aze][NEtPhe(4-Me)][NEtG][hPhe(3-Cl-4-CF3)]P[Ac5c][NMeGly(cPent)][NMeD]-Morpholide; lactam N-11)
NRAS/KRAS (ratio of KD for GDP-bound NRAS wild-type to KD for KRAS) ([1]; KD ratio NRAS/KRAS, SPR): C (A compound having a KD ratio of 0.1 or more and less than 3 is denoted as C) | HRAS/KRAS (ratio of KD for GDP-bound HRAS wild-type to KD for KRAS) ([2]; KD ratio HRAS/KRAS, SPR): C (A compound having a KD ratio of 0.1 or more and less than 3 is denoted as C)

CC[C@H](C)[C@@H]1NC(=O)[C@H](CC)N(C)C(=O)C[C@@H](C(=O)N(C)C)N(C)C(=O)[C@H](C2CCCC2)N(C)C(=O)C2(CC(C)(C)C2)NC(=O)[C@H](CC)N(C)C(=O)[C@H](CCc2cc(F)c(C(F)(F)F)c(F)c2)NC(=O)CN(C)C(=O)[C@H](Cc2ccc(C(F)(F)F)cc2)N2CC/C=C\C[C@@H](C2=O)N(C)C(=O)CN(C)C1=O [PP1935]
NRAS/KRAS (ratio of KD value for NRAS to KD value for KRAS) [1, 5]: A (a compound having 10 or more and less than 20 is denoted as A) | HRAS/KRAS (ratio of KD value for HRAS to KD value for KRAS) [2, 6]: A (a compound having 10 or more and less than 20 is denoted as A)

CCO[C@@H]1C[C@H]2C(=O)NC3(CC(C)(C)C3)C(=O)N(C)[C@@H](C(CC)CC)C(=O)N(C)[C@H](C(=O)N(C)C)CC(=O)N(C)[C@@H](CC(C)C)C(=O)N[C@@H]([C@@H](C)CC)C(=O)N(C)CC(=O)N(C)[C@H]3C/C=C\CCN(C3=O)[C@@H](Cc3ccc(C(F)(F)F)cc3)C(=O)N(C)CC(=O)N[C@@H](CCc3ccc(C(F)(F)F)c(Cl)c3)C(=O)N2C1 [PP2132]
NRAS/KRAS (ratio of KD value with respect to NRAS to KD value with respect to KRAS) ([1]; SPR, GDP-bound NRAS wild-type vs GDP-bound KRAS wild-type): AA (a compound having 20 or more is denoted as AA) | HRAS/KRAS (ratio of KD value with respect to HRAS to KD value with respect to KRAS) ([2]; SPR, GDP-bound HRAS wild-type vs GDP-bound KRAS wild-type): A (a compound having 10 or more and less than 20 is denoted as A)
